Laboratory results published in ChEMBL document CHEMBL1151586, “Design and synthesis of 10-oxo derivative of N-cyclopropylmethyl ()-6-acetylthiodihydro-normorphine, a potentially -selective opioid receptor ligand” (Bioorg Med Chem Lett, 1995).

Assays:
Cavia porcellus [1] = organism: Cavia porcellus; test: Inhibition of the twitch response of the guinea pig longitudinal muscle strip to electrical stimulation in a concentration-dependent manner; assay type: functional, Muscle tissue
Cavia porcellus [2] = organism: Cavia porcellus; test: Inhibition of the twitch response of the guinea pig ileal strip to electrical stimulation; assay type: functional; settings: read-out: pA2 (converted)

Structure (SMILES) | pD2 (Cavia porcellus [1]) [M] | Kb (Cavia porcellus [2]) [nM]
CC(=O)Oc1ccc2c3c1O[C@H]1[C@H](SC(C)=O)C=CC4[C@@H](C2)N(CC2CC2)CC[C@@]341 (some centres undefined) | 8.4 | 
CC(=O)Oc1ccc2c3c1O[C@H]1[C@H](SC(C)=O)CCC4[C@@H](C2=O)N(CC2CC2)CC[C@@]341 (some centres undefined) | 9.03 | 0.0355
CN1CC[C@]23c4c5ccc(O)c4O[C@H]2[C@@H](O)C=C[C@H]3[C@H]1C5 [MORPHINE] | 7.23 | 
